Measurements as given in patent US8097628B2, “Compounds” (Glaxo Group Limited, priority 2008, dated 2012).
≈ marks a conversion by molar mass, not a printed value. Structures can show the parent of a compound that is named as a salt.

These compounds were tested on Mycobacterium tuberculosis H37Rv (assay: Mycobacterium tuberculosis H37Rv Inhibition Assay). Conditions: ATCC 25618 / H37Rv, H37Rv strain (ATCC25618), Middlebrook 7H9, resazurin fluorescence, read-out: MtB MIC.
Assay type: cell-based

Structure (SMILES)	MIC [µg/mL]
Cc1ccc(CNC2CCN(CC3Cn4c(=O)ccc5ncc(=O)n3c54)CC2)cc1[N+](=O)[O-] (stereo not drawn) [Example 23, 2-[(4-{[(4-methyl-3-nitrophenyl)methyl]amino}-1-piperidinyl)methyl]-1,2-dihydro-3H,8H-2a,5,8a-triazaacenaphthylene-3,8-dione]	0.036 (≈ 0.0799 µM)
Cc1cc(CNC2CCN(CC3Cn4c(=O)ccc5ncc(=O)n3c54)CC2)sc1Br (stereo not drawn) [Example 24, 2-[(4-{[(5-bromo-4-methyl-2-thienyl)methyl]amino}-1-piperidinyl)methyl]-1,2-dihydro-3H,8H-2a,5,8a-triazaacenaphthylene-3,8-dione]	0.077 (≈ 0.157 µM)
Cc1ccc(CNC2CCN(CC3Cn4c(=O)ccc5ncc(=O)n3c54)CC2)cc1C (stereo not drawn) [Example 25, 2-[(4-{[(3,4-dimethylphenyl)methyl]amino}-1-piperidinyl)methyl]-1,2-dihydro-3H,8H-2a,5,8a-triazaacenaphthylene-3,8-dione]	0.262 (≈ 0.625 µM)
Cc1ncc(CNC2CCN(CC3Cn4c(=O)ccc5ncc(=O)n3c54)CC2)cc1Cl (stereo not drawn) [Example 26, 2-[(4-{[(5-chloro-6-methyl-3-pyridinyl)methyl]amino}-1-piperidinyl)methyl]-1,2-dihydro-3H,8H-2a,5,8a-triazaacenaphthylene-3,8-dione]	0.069 (≈ 0.156 µM)
O=c1ccc2ncc(=O)n3c2n1CC3CN1CCC(NCc2ccc(OC(F)(F)F)cc2)CC1 (stereo not drawn) [Example 27, 2-({4-[({4-[(trifluoromethyl)oxy]phenyl}methyl)amino]-1-piperidinyl}methyl)-1,2-dihydro-3H,8H-2a,5,8a-triazaacenaphthylene-3,8-dione]	2.38 (≈ 5 µM)
O=c1ccc2ncc(=O)n3c2n1CC3CN1CCC(NCc2ccc(C(F)(F)F)cc2)CC1 (stereo not drawn) [Example 28, 2-{[4-({[4-(trifluoromethyl)phenyl]methyl}amino)-1-piperidinyl]methyl}-1,2-dihydro-3H,8H-2a,5,8a-triazaacenaphthylene-3,8-dione]	0.144 (≈ 0.313 µM)
O=c1ccc2ncc(=O)n3c2n1CC3CN1CCC(NCc2ccc(Br)cc2)CC1 (stereo not drawn) [Example 29, 2-[(4-{[(4-bromophenyl)methyl]amino}-1-piperidinyl)methyl]-1,2-dihydro-3H,8H-2a,5,8a-triazaacenaphthylene-3,8-dione]	0.147 (≈ 0.313 µM)
Cl.O=c1ccc2ccc(=O)n3c2n1C[C@H]3CN1CCC(NCc2ccc(Cl)c(Cl)c2)CC1 [Example 31, (1R)-1-[(4-{[(3,4-dichlorophenyl)methyl]amino}-1-piperidinyl)methyl]-1,2-dihydro-4H,9H-imidazo[1,2,3-ij]-1,8-naphthyridine-4,9-dione hydrochloride]	0.019
Cc1cc(CNC2CCN(CC3Cn4c(=O)ccc5ncc(=O)n3c54)CC2)cnc1F (stereo not drawn) [Example 33, 2-[(4-{[(6-fluoro-5-methyl-3-pyridinyl)methyl]amino}-1-piperidinyl)methyl]-1,2-dihydro-3H,8H-2a,5,8a-triazaacenaphthylene-3,8-dione]	0.531 (≈ 1.25 µM)
Cc1cc(CNC2CCN(CC3Cn4c(=O)ccc5ncc(=O)n3c54)CC2)ccc1Cl (stereo not drawn) [Example 34, 2-[(4-{[(4-chloro-3-methylphenyl)methyl]amino}-1-piperidinyl)methyl]-1,2-dihydro-3H,8H,2a,5,8a-triazaacenaphthylene-3,8-dione]	0.069 (≈ 0.157 µM)
O=c1ccc2ncc(=O)n3c2n1CC3CN1CCC(NCc2cc(Br)cs2)CC1 (stereo not drawn) [Example 35, 2-[(4-{[(4-bromo-2-thienyl)methyl]amino}-1-piperidinyl)methyl]-1,2-dihydro-3H,8H-2a,5,8a-triazaacenaphthylene-3,8-dione]	1.19 (≈ 2.5 µM)
Cl.O=c1ccc2ncc(=O)n3c2n1CC3CN1CCC(NCc2ccc(Cl)c(Cl)c2)CC1 (stereo not drawn) [Example 36, 2-[(4-{[(3,4-dichlorophenyl)methyl]amino}-1-piperidinyl)methyl]-1,2-dihydro-3H,8H-2a,5,8a-triazaacenaphthylene-3,8-dione]	0.015
O=c1ccc2ncc(=O)n3c2n1CC3CN1CCC(NCc2cnc(Cl)s2)CC1 (stereo not drawn) [Example 37, 2-[(4-{[(2-chloro-1,3-thiazol-5-yl)methyl]amino}-1-piperidinyl)methyl]-1,2-dihydro-3H,8H-2a,5,8a-triazaacenaphthylene-3,8-dione]	2.17 (≈ 5 µM)
O=c1ccc2ncc(=O)n3c2n1CC3CN1CCC(NCc2ccc([N+](=O)[O-])cc2)CC1 (stereo not drawn) [Example 38, 2-[(4-{[(4-nitrophenyl)methyl]amino}-1-piperidinyl)methyl]-1,2-dihydro-3H,8H-2a,5,8a-triazaacenaphthylene-3,8-dione]	0.273 (≈ 0.625 µM)
COc1ccc(CNC2CCN(CC3Cn4c(=O)ccc5ncc(=O)n3c54)CC2)cc1Cl (stereo not drawn) [Example 39, 2-{[4-({[3-chloro-4-(methyloxy)phenyl]methyl}amino)-1-piperidinyl]methyl}-1,2-dihydro-3H,8H-2a,5,8a-triazaacenaphthylene-3,8-dione]	1.14 (≈ 2.5 µM)
O=c1ccc2ncc(=O)n3c2n1CC3CN1CCC(NCc2ccc(Br)cn2)CC1 (stereo not drawn) [Example 40, 2-[(4-{[(5-bromo-2-pyridinyl)methyl]amino}-1-piperidinyl)methyl]-1,2-dihydro-3H,8H-2a,5,8a-triazaacenaphthylene-3,8-dione]	1.18 (≈ 2.5 µM)
O=c1ccc2ncc(=O)n3c2n1CC3CN1CCC(NCc2cncc(Br)c2)CC1 (stereo not drawn) [Example 41, 2-[(4-{[(5-bromo-3-pyridinyl)methyl]amino}-1-piperidinyl)methyl]-1,2-dihydro-3H,8H-2a,5,8a-triazaacenaphthylene-3,8-dione]	0.884 (≈ 1.88 µM)
O=c1ccc2ncc(=O)n3c2n1CC3CN1CCC(NCc2cncc(Cl)c2)CC1 (stereo not drawn) [Example 42, 2-[(4-{[(5-chloro-3-pyridinyl)methyl]amino}-1-piperidinyl)methyl]-1,2-dihydro-3H,8H-2a,5,8a-triazaacenaphthylene-3,8-dione]	1.07 (≈ 2.5 µM)
Cc1ccc(CNC2CCN(CC3Cn4c(=O)ccc5ncc(=O)n3c54)CC2)cc1F (stereo not drawn) [Example 43, 2-[(4-{[(3-fluoro-4-methylphenyl)methyl]amino}-1-piperidinyl)methyl]-1,2-dihydro-3H,8H-2a,5,8a-triazaacenaphthylene-3,8-dione]	0.066 (≈ 0.156 µM)
O=c1ccc2ncc(=O)n3c2n1CC3CN1CCC(NCc2ccc(F)c(F)c2)CC1 (stereo not drawn) [Example 44, 2-[(4-{[(3,4-difluorophenyl)methyl]amino}-1-piperidinyl)methyl]-1,2-dihydro-3H,8H-2a,5,8a-triazaacenaphthylene-3,8-dione]	0.267 (≈ 0.625 µM)
Cl.O=c1ccc2ncc(=O)n3c2n1C[C@H]3CN1CCC(NCc2ccc(C(F)(F)F)nc2)CC1 [Example 46, (2R)-2-{[4-({[6-(trifluoromethyl)-3-pyridinyl]methyl}amino)-1-piperidinyl]methyl}-1,2-dihydro-3H,8H-2a,5,8a-triazaacenaphthylene-3,8-dione hydrochloride]	0.078
O=c1ccc2ncc(=O)n3c2n1C[C@@H]3CN1CCC(NCc2ccc(Cl)c(Cl)c2)CC1 [Example 47, (2S)-2-[(4-{[(3,4-dichlorophenyl)methyl]amino}-1-piperidinyl)methyl]-1,2-dihydro-3H,8H-2a,5,8a-triazaacenaphthylene-3,8-dione]	0.072 (≈ 0.156 µM)
O=c1ccc2ncc(=O)n3c2n1C[C@@H]3CN1CCC(NCc2ccc(C(F)(F)F)nc2)CC1 [Example 48, (2S)-2-{[4-({[6-(trifluoromethyl)-3-pyridinyl]methyl}amino)-1-piperidinyl]methyl}-1,2-dihydro-3H,8H-2a,5,8a-triazaacenaphthylene-3,8-dione]	2.3 (≈ 5 µM)
N#Cc1ncc(CNC2CCN(C[C@@H]3Cn4c(=O)ccc5ccc(=O)n3c54)CC2)cc1Cl [Example 49, 3-chloro-5-{[(1-{[(1R)-4,9-dioxo-1,2-dihydro-4H,9H-imidazo[1,2,3-ij]-1,8-naphthyridin-1-yl]methyl}-4-piperidinyl)amino]methyl}-2-pyridinecarbonitrile]	0.07 (≈ 0.155 µM)
Cl.N#Cc1ncc(CNC2CCN(C[C@@H]3Cn4c(=O)ccc5ccc(=O)n3c54)CC2)cc1Cl [Example 50, 3-chloro-5-{[(1-{[(1R)-4,9-dioxo-1,2-dihydro-4H,9H-imidazo[1,2,3-ij]-1,8-naphthyridin-1-yl]methyl}-4-piperidinyl)amino]methyl}-2-pyridinecarbonitrile dihydrochloride]	0.082
Cc1ncc(CNC2CCN(CC3Cn4c(=O)ccc5ncc(=O)n3c54)CC2)cc1F (stereo not drawn) [Example 52, 2-[(4-{[(5-fluoro-6-methyl-3-pyridinyl)methyl]amino}-1-piperidinyl)methyl]-1,2-dihydro-3H,8H-2a,5,8a-triazaacenaphthylene-3,8-dione]	> 2.12
Cc1ncc(CNC2CCN(C[C@H]3Cn4c(=O)ccc5ncc(=O)n3c54)CC2)cc1Cl [Example 53, (2S)-2-[(4-{[(5-chloro-6-methyl-3-pyridinyl)methyl]amino}-1-piperidinyl)methyl]-1,2-dihydro-3H,8H-2a,5,8a-triazaacenaphthylene-3,8-dione]	0.83 (≈ 1.88 µM)
CCc1ncc(CNC2CCN(C[C@@H]3Cn4c(=O)ccc5ccc(=O)n3c54)CC2)cc1F [Example 54, (1R)-1-[(4-{[(6-ethyl-5-fluoro-3-pyridinyl)methyl]amino}-1-piperidinyl)methyl]-1,2-dihydro-4H,9H-imidazo[1,2,3-ij]-1,8-naphthyridine-4,9-dione]	2.19 (≈ 5 µM)

Same assay, conditions: ATCC 25618 / H37Rv, read-out: MtB MIC

Structure (SMILES)	MIC [µg/mL]
Cc1ncc(CNC2CCN(C[C@@H]3Cn4c(=O)ccc5ncc(=O)n3c54)CC2)cc1Br [Example 51, (2R)-2-[(4-{[(5-bromo-6-methyl-3-pyridinyl)methyl]amino}-1-piperidinyl)methyl]-1,2-dihydro-3H,8H-2a,5,8a-triazaacenaphthylene-3,8-dione hydrochloride]	0.015
Cc1ncc(CNC2CCN(C[C@@H]3Cn4c(=O)cnc5ccc(=O)n3c54)CC2)cc1Br [Example 55, (1R)-1-[(4-{[(5-bromo-6-methyl-3-pyridinyl)methyl]amino}-1-piperidinyl)methyl]-1,2-dihydro-3H,8H-2a,5,8a-triazaacenaphthylene-3,8-dione hydrochloride]	0.04

Same assay, conditions: H37Rv inhibition assay, read-out: MIC value

Structure (SMILES)	MIC [µg/mL]
O=c1ccc2ncc(=O)n3c2n1CC3CN1CCC(NCc2ccc(OC(F)(F)F)cc2)CC1 (stereo not drawn) [Example 27, 2-({4-[({4-[(trifluoromethyl)oxy]phenyl}methyl)amino]-1-piperidinyl}methyl)-1,2-dihydro-3H,8H-2a,5,8a-triazaacenaphthylene-3,8-dione]	> 1
O=c1ccc2ncc(=O)n3c2n1CC3CN1CCC(NCc2cc(Br)cs2)CC1 (stereo not drawn) [Example 35, 2-[(4-{[(4-bromo-2-thienyl)methyl]amino}-1-piperidinyl)methyl]-1,2-dihydro-3H,8H-2a,5,8a-triazaacenaphthylene-3,8-dione]	> 1
COc1ccc(CNC2CCN(CC3Cn4c(=O)ccc5ncc(=O)n3c54)CC2)cc1Cl (stereo not drawn) [Example 39, 2-{[4-({[3-chloro-4-(methyloxy)phenyl]methyl}amino)-1-piperidinyl]methyl}-1,2-dihydro-3H,8H-2a,5,8a-triazaacenaphthylene-3,8-dione]	> 1
O=c1ccc2ncc(=O)n3c2n1CC3CN1CCC(NCc2ccc(Br)cn2)CC1 (stereo not drawn) [Example 40, 2-[(4-{[(5-bromo-2-pyridinyl)methyl]amino}-1-piperidinyl)methyl]-1,2-dihydro-3H,8H-2a,5,8a-triazaacenaphthylene-3,8-dione]	> 1
O=c1ccc2ncc(=O)n3c2n1C[C@@H]3CN1CCC(NCc2ccc(C(F)(F)F)nc2)CC1 [Example 48, (2S)-2-{[4-({[6-(trifluoromethyl)-3-pyridinyl]methyl}amino)-1-piperidinyl]methyl}-1,2-dihydro-3H,8H-2a,5,8a-triazaacenaphthylene-3,8-dione]	> 1
Cc1ncc(CNC2CCN(CC3Cn4c(=O)ccc5ncc(=O)n3c54)CC2)cc1F (stereo not drawn) [Example 52, 2-[(4-{[(5-fluoro-6-methyl-3-pyridinyl)methyl]amino}-1-piperidinyl)methyl]-1,2-dihydro-3H,8H-2a,5,8a-triazaacenaphthylene-3,8-dione]	> 1
